How the values were obtained:
[1] = system: zebrafish liver cells (ZFL); assay: Propidium iodide live/dead staining by flow cytometry; format: cell-based; settings: for percentage of PI negative cells: 72 h exposure, low concentrations
Protocol: Benzo[a]pyrene (50 μM), an indirect-acting genotoxic agent which requires metabolic activation for its genotoxic effects, and etoposide (0.17 μM), a direct-acting genotoxic agent, were selected as positive controls. After 72 h, floating and adherent cells were collected, resuspended in ice-cold 1x PBS, and immediately analyzed. Propidium iodide (PI) at a final concentration of 1 μg/mL was added to the cells 5 min before the start of measurements using the MACSQuant Analyzer 10 flow cytometer (Miltenyi Biotech, Bergisch Gladbach, Germany). MASCQuantifiy software (Miltenyi Biotech, Bergisch Gladbach, Germany) was used to quantify PI negative and positive cells. The experiments were repeated three times independently. Statistical significance between the treated groups and control was determined by one-way ANOVA with post hoc multiple comparison Dunett’s test using GraphPad Prism V6 (GraphPad Software, La Jolla, CA, USA). * p < 0.05 was considered statistically significant.

[2] = system: zebrafish liver cells (ZFL); assay: Micronucleus detection by flow cytometry; format: cell-based; settings: 72 h; for MNi frequency: non-cytotoxic concentrations
Protocol: ZFL cells were seeded onto 24-well culture plates (Nunclon) at a density of 35,000 cells per well for 24 h. […] Etoposide (0.17 μM and 0.68 μM) was used as a positive control. After 72 h, cells were placed on ice for 20 min, and subsequently a 0.05 mg/mL EMA solution was added to each well. The cells were placed on ice for 30 min and exposed to light for photoactivation of the EMA fluorochrome. Afterwards, cells were washed and resuspended in lysis solution (0.584 mg/mL NaCl, 1 mg/mL sodium citrate, and 0.3 μL/mL Triton X-100) containing 0.2 μM SYTOX Green and 0.25 mg/mL RNAse A, and incubated for 1 h in the dark at 37 °C. After incubation, lysis solution (85.6 mg/mL sucrose and 15 mg/mL citric acid) containing 0.2 μM SYTOX Green was added to the wells of the plate and incubated for a further 30 min at room temperature in the dark. Cells were analyzed on the same day using MACSQuant Analyzer 10 flow cytometer. MASCQuantify Software 2.11. was used to analyze each sample, and the percentage of micronuclei was determined after the acquisition of a total of 20,000 gated nuclei events, excluding EMA-positive events. One-way ANOVA with post hoc multiple comparison Dunett’s test using GraphPad Prism V6 (GraphPad Software, Carlsbad, CA, USA) was carried out. * p < 0.05 and *** p < 0.0001 were considered statistically significant.

[3] = system: zebrafish liver cells (ZFL); assay: MTS assay, viability of ZFL cells; format: cell-based; settings: for viability of the ZFL cells: 24, 48, 72 h, dose- and time-dependent, ERL and NIL up to their maximum solubility; for cytotoxic effects in ZFL cells (MTS): concentrations up to 60 µM, up to 72 h exposure
Protocol: (§1) The viability of ZFL cells after 24, 48, and 72 h of exposure to TKIs was determined using the tetrazolium-based (MTS) assay (Cell Titer 96 AQueous Non-Radioactive Cell Proliferation Assay; Promega, Madison, WI, USA) as previously described by Novak et al.. Cells were seeded in 96-well microtiter plates (Corning Costar Corporation, New York, NY, USA) at a density of 7000 cells/well. […] Three independent experiments were performed, each with five replicates per treatment point. The statistical significance between the treated groups and the solvent control was determined by Student’s t-test using GraphPad Prism V6 (GraphPad Software, La Jolla, CA, USA). *** (p < 0.001)was considered statistically significant.

[4] = system: zebrafish liver cells (ZFL); assay: Alkaline comet assay (DNA strand breaks); format: cell-based; settings: 24 h of exposure, non-cytotoxic concentrations
Protocol: The induction of DNA strand breaks after TKI exposure was assessed by the comet assay according to Møller et al., with minor modifications. Briefly, ZFL cells were seeded at a density of 100,000 cells/well onto 12-well cell culture plates (Corning Costar Corporation, New York, NY, USA) and incubated for 24 h to attach. […] B(a)P (50 μM) was used as a positive control. After treatment, ZFL cells were trypsinized, collected, and centrifuged. Thirty μL of the cell suspension was mixed with 70 μL of 1% LMP agarose and placed on fully frosted slides pre-coated with 80 μL of 1% NMP agarose. Cells were then lysed for 1 h at 4 °C (2.5 M NaCl, 100 mM EDTA, 10 mM Tris, 1% Triton X-100, pH 10). DNA was subsequently denatured in electrophoresis buffer (1 mM EDTA, 300 mM NaOH, pH 13) for 20 min at 4 °C and slides were electrophoresed at 25 V (at 1 V/cm) for 20 min. Finally, nuclei were stained with GelRed (Biotium, Fremont, CA, USA). Images of 50 randomly selected nuclei per experimental point were acquired with the Eclipse 800 fluorescence microscope (Nikon, Tokyo, Japan) at 400× magnification using image analysis software (Comet Assay IV, Instem, UK). The statistical significance between control and treated groups was determined by one-way analysis of variance (ANOVA, Kruskal–Wallis) and Dunn’s multiple comparison test. * p < 0.05 was considered statistically significant.

H295R cells = system: H295R cells; set-up: method as in Silveira et al. 28; settings: 10 µM; ref Silveira et al. 28; cited from earlier work
[5] = system: human lymphocytes or Chinese hamster ovary cells in vitro and rat bone marrow; settings: ref 11 (REG), 69 (ERL), 59 (NIL); cited from earlier work
[6] = system: zebrafish liver cells (ZFL); assay: Cell cycle analysis with flow cytometry; format: cell-based; settings: 72 h; for effect on cell cycle progression: concentration-dependent, parallel decrease in S-phase fraction
Protocol: ZFL cells were seeded onto T25 culture plates at a density of 450,000 cells for 24 h. […] The positive control was etoposide (0.17 μM), which is known to arrest cells in the G2/M phase of the cell cycle. After 72 h, cells were trypsinized (0.25% trypsin-EDTA) and washed with 1x PBS before fixation in 4% paraformaldehyde (PFA). For flow cytometric analysis, fixed cells were washed in cold 1x PBS and stained with Hoechst 33258 dye (diluted in 0.1% Triton X-100 1:500) as described by Stampar et al.. Flow cytometric measurements were performed using a MACSQuant Analyzer 10 and the experiment was repeated three times independently. Each time, 20,000 single cells were recorded per experimental point. The data obtained were analyzed using FlowJo V10 software (Becton Dickinson, Franklin Lakes, NJ, USA). Statistical analysis for cell cycle was performed by the two-way ANOVA with Fisher’s LSD test using GraphPad Prism V6 (GraphPad Software, La Jolla, CA, USA). * p < 0.05, ** (p < 0.01), *** (p < 0.001) were considered statistically significant.

[7] = MTS assay, viability of ZFL cells; format: cell-based, zebrafish; settings: zebrafish, ZFL cells (zebrafish liver cell line), ZFL cells, read-out: IC50 for TKIs Cytotoxicity (95% Confidence Interval)
Protocol: as §1

[8] = system: human lymphoblastoid TK6 cells; set-up: method as in PMID 25111698; settings: up to 4.4 μM, 24 h, without and with metabolic activation; cited from earlier work
[9] = system: certain target cancer cells; set-up: method as in ref 56, 57 (DAS), 58, 59 (REG); settings: in vitro; 57 (DAS), 58, 59 (REG); cited from earlier work
HepG2 cells = settings: 24 h of exposure; cited from earlier work
Huh-7 cells = settings: 24 h; cited from earlier work
HepG2 and HepaRG cells = system: HepG2 and HepaRG cells; set-up: method as in PMID 28659801; settings: 20 µM highest concentration tested; cited from earlier work
Alium cepa = system: Alium cepa; set-up: method as in doi:10.1508/cytologia.86.195; settings: dose-dependent; cited from earlier work
[10] = system: ovarian carcinoma A2780 cells; set-up: method as in PMID 28223694; settings: up to 10 μM, 24 h; cited from earlier work
[11] = system: human ovarian cancer cells (SKOV-3 cells); set-up: method as in Mak et al. 66; settings: 10 µM, 72 h; ref Mak et al. 66; cited from earlier work
A549 cells = system: A549 cells; set-up: method as in Kryeziu et al. 65; settings: 20 µM, 6 h exposure; ref Kryeziu et al. 65; cited from earlier work
H520 and H1975 cells = system: H520 and H1975 cells; set-up: method as in PMID 24447935; settings: highest concentration tested; cited from earlier work

Compound	MNi frequency [2]	viability of the ZFL cells [3]	cytotoxic effects in ZFL cells (MTS) [3]	concentration with statistically significant increase in percentage of tail DNA [4] [nM]	percentage of PI negative cells [1]	mutagenicity/genotoxicity (chromosomal damage/genomic instability) [5]	concentration that induced G0/G1 cell cycle arrest with decrease in number of cells in S phase [6] [µM]	effect on cell cycle progression [6]	other results
Cc1cn(-c2cc(NC(=O)c3ccc(C)c(Nc4nccc(-c5cccnc5)n4)c3)cc(C(F)(F)F)c2)cn1 [NIL, nilotinib]	did not significantly increase	did not affect cell viability	no cytotoxic effects	≥ 2000					decrease of the percentage of PI negative cells ([1]; highest concentration tested, 72 h): approximately 20%; decrease of survival (H295R cells): 62.9%
COc1cc([C@@H]2c3cc4c(cc3[C@@H](O[C@@H]3O[C@@H]5CO[C@@H](C)O[C@H]5[C@H](O)[C@H]3O)[C@H]3COC(=O)[C@H]23)OCO4)cc(OC)c1O [etoposide, Etoposide]									MNi in representative dot plot ([2]; 0.17 μM): increased amount of MNi
CNC(=O)c1cc(Oc2ccc(NC(=O)Nc3ccc(Cl)c(C(F)(F)F)c3)c(F)c2)ccn1 [REG, regorafenib]	did not significantly increase	reduced		≥ 800	did not significantly decrease	not mutagenic/genotoxic	3	arrest of the cell cycle in the G0/G1 phase	IC50 at 24 h ([7]; 24 h exposure): 5.64 µM; IC50 at 48 h ([7]; 48 h exposure): 4.54 µM; IC50 at 72 h ([7]; 72 h exposure): 3.59 µM; MNi formation [8]: did not induce MNi formation; DNA damage assessed by comet assay [9]: induce DNA damage
C#Cc1cccc(Nc2ncnc3cc(OCCOC)c(OCCOC)cc23)c1 [ERL, erlotinib]	did not significantly increase	did not affect cell viability	no cytotoxic effect		did not significantly decrease	not mutagenic/genotoxic	40	arrest of the cell cycle in the G0/G1 phase	concentration inducing apoptosis (HepG2 cells): 25 µM; concentration inducing cell cycle arrest (HepG2 cells): 10 µM; concentration with cell cycle arrest (Huh-7 cells): 25 µM; cytotoxicity (HepG2 and HepaRG cells): only slight cytotoxicity; mitotic index and cytological aberrations (Alium cepa): decreased the mitotic index and increased cytological aberrations; MNi formation [10]: did not induce MNi formation; percentage of tail DNA [11]: increases the percentage of tail DNA; DNA damage (alkaline comet assay) (A549 cells): did not induce DNA damage; reduction in viability (H520 and H1975 cells): 20%

— PMC9965539, “Adverse Toxic Effects of Tyrosine Kinase Inhibitors on Non-Target Zebrafish Liver (ZFL) Cells” (International Journal of Molecular Sciences, 2023)
